These results are taken from patent US12024584B2, “Methods and compositions for polyurethane dispersions using caprolactam-derived solvents” (AdvanSix Resins & Chemicals LLC, priority 2017, dated 2024).

Like-named read-outs stand apart in the source and are kept apart here.

Series [1] can be described thus: MFFT of pigmented and complete PUDs. The series is classed as physicochemical. The conditions noted are these: pigmented and complete PUD, 3 wt. % coalescing agent. The source says: (§1) Tests were first performed to determine the coalescing agent level for pigmented and complete PUD formulations in order to achieve the optimum film formation. Complete paints were mixed with 0.7 wt. %, 1.5 wt. %, 3.0 wt. % and 5.0 wt. % of coalescing agents and applied on tin plated steel at a wet film thickness of around 250 μm, where the weight percentage was based on the pure polyurethane dispersion resins. […] Based on the observations, 3 wt. % dosage of coalescing agent was selected. Complete PUD formulations with pigments, fillers and other additives were prepared as per Table 5, and used to test and determine the coalescing properties of the caprolactam-derived solvents and other known coalescing agents. The standard test for determining this temperature involves using a MFFT-BAR, as specified by standards ASTM D 2354 and ISO 2115. In general, the MFFT of a paint or coating is reduced temporarily by the use of coalescing agents.

Series [2] in a line: Open time (ASTM D7488). The settings on record: ASTM D7488, 23±2° C., 50±5% RH, wet film 200 μm. The format is physicochemical.
Text: as §1, with “agents.” for “agents. The standard test for determining this temperature involves using a MFFT-BAR, as specified by standards ASTM D 2354 and ISO 2115. In general, the MFFT of a paint or coating is reduced temporarily by the use of coalescing agents.”
Open times were determined according to the ASTM D7488 “Test Method for Open Time of Latex” standard and the tests were performed under controlled temperature and humidity (23±2° C. and 50±5% RH). In general, the paints were applied at a wet film thickness of 200 μm on contrasting sealed charts by means of a doctor blade applicator, and “X” marks are made immediately with the wide curved end of a wooden paint brush. After a determined time internal, the brush was dipped into the paint to be tested and brushing of the X-marks was started in perpendicular direction to the initial drawdown using 10 strokes back and forth to work the paint under test into the drawdown area. This procedure is repeated after several time intervals. After their complete drying (1 week), the painted panels are observed by two different observers and the time for which the “X” marks to become visible is considered as the open time.

A short description of series [3]: Drying time (ASTM D1640 / ASTM D5895). The format is physicochemical. The settings on record: 200 μm humid film; blends by ASTM D1640, single solvents by ASTM D5895.
Text: as §1, with “agents.” for “agents. The standard test for determining this temperature involves using a MFFT-BAR, as specified by standards ASTM D 2354 and ISO 2115. In general, the MFFT of a paint or coating is reduced temporarily by the use of coalescing agents.”
The drying times for the pigmented PUD formulations were determined according to the ASTM D1640 “Standard Test Methods for Drying, Curing, or Film Formation of Organic Coatings” standard or the ASTM D5895 “Standard Test Methods for Evaluating Drying or Curing During Film Formation of Organic Coatings Using Mechanical Recorders” standard. Four stages of drying can be identified depending on the trace left by the needle on the paint surface: Stage 1—Set-to-Touch time, Stage 2—Tack-Free time, Stage 3—Dry-Hard time, and Stage IV—Dry trough time. However, Stage IV is often hard to detect.
In general, the paints were applied at a humid film thickness of 200 μm by means of a bar coater on a Leneta sheet and the needle rate was set at 60 cm/hr.
For the present examples, the drying times for the 2:1 A:B, 1:1 A:B, and 1:2 A:B solvents were determined using the ASTM D1640 standard, and the drying times for NM CPL, NE CPL, NMP, NBP, ester amide, and ester alcohol were determined using the ASTM D5895 standard.

A short description of series [4]: Persoz hardness of pigmented and complete PUDs. The format is physicochemical. The conditions noted are these: pigmented.
Text: as §1, with “agents.” for “agents. The standard test for determining this temperature involves using a MFFT-BAR, as specified by standards ASTM D 2354 and ISO 2115. In general, the MFFT of a paint or coating is reduced temporarily by the use of coalescing agents.”
Persoz hardness measurements were performed on pigmented paints that were applied on tin plated steel using a doctor blade applicator at a dry film thickness (DFT) around 50 μm according to the ISO 1522 standard. […] For instance, the 28 day hardness for N-ethyl caprolactam (NE CPL) was approximately 104.6±0.5, while the 28 day hardness for NMP was approximately 108.8±2.4, and the 28 day hardness for ester alcohol and N-methyl caprolactam (NM CPL) were approximately 124.8±1 and 126.0±1, respectively, while the 28 day hardness for NBP was approximately 135.8±5.

A short description of series [5]: Gloss of pigmented and complete PUDs (ISO 2813). The format is physicochemical.
Text: as §1, with “agents.” for “agents. The standard test for determining this temperature involves using a MFFT-BAR, as specified by standards ASTM D 2354 and ISO 2115. In general, the MFFT of a paint or coating is reduced temporarily by the use of coalescing agents.”
(§2) Gloss measurements serve as an indicator of the paints surface quality. Gloss and color measurements were determined according to the ISO 2813 standard and the ISO 7724-2 standard (SCI-D65/10°), respectively.

The nature of series [6]: Color of pigmented and complete PUDs (ISO 7724-2). The format is physicochemical.
Text: as §1, with “agents.” for “agents. The standard test for determining this temperature involves using a MFFT-BAR, as specified by standards ASTM D 2354 and ISO 2115. In general, the MFFT of a paint or coating is reduced temporarily by the use of coalescing agents.”
as §2

Series [7] is described as follows: Scrub resistance of pigmented and complete PUDs (ISO 11998). The format is physicochemical. The settings on record: for Wt. Loss: 200 wet-scrub cycles; for Loss of thickness after 200 wet-scrub cycles: calculated from weight loss.
Text: as §1, with “agents.” for “agents. The standard test for determining this temperature involves using a MFFT-BAR, as specified by standards ASTM D 2354 and ISO 2115. In general, the MFFT of a paint or coating is reduced temporarily by the use of coalescing agents.”
Scrub resistance was tested according the ISO 11998 “Paints and Varnishes—Determination of Wet-Scrub Resistance and Cleanability of Coatings” standard. In this testing method, the paint was applied on a test panel (Leneta sheet) using a film applicator at the specific gap clearance. After drying and conditioning for four weeks at room temperature the coated panel was weighed and subject to 200 wet-scrub cycles in a scrub resistance machine. The panel was then washed, dried and weighed to determine the loss from which the mean loss in film thickness was calculated. […] For instance, N-methyl caprolactam (NM CPL), N-ethyl caprolactam (NE CPL), and blends thereof in the ratios of 1:2 and 1:1, all had less loss of thickness (2.035 μm, 1.797 μm, 1.39 μm, and 1.64 μm, respectively) as compared to NMP (2.090 μm) and NBP (2.213 μm).

The nature of series [8]: Freeze and thaw stability (ASTM D2243-95). The format is physicochemical. The settings on record: cycles of 16 hours at −20° C. and 8 hours at room temperature. The method, then:
Water-based emulsions and dispersions are susceptible to irreversible coagulation by freezing. Freeze and thaw stability was tested according the ASTM D2243-95 standard.
For these examples, pigmented PUD paints were subject to freeze-thaw cycles of 16 hours at −20° C. and 8 hours at room temperature and subsequently subject to visible observations. The paints were then applied on a tin plated steel plate at a thickness of approximately 200 μm for observing film properties.
In addition, the freeze-thaw stability was best for caprolactam-derived coalescing agents (NM CPL) and the blends even after subject to five cycles (see FIG. 9). In particular, the paints were visually observed after each cycle to see if there was any viscosity change, i.e., thickening of the paint. Then, the dry films of the coatings were observed visually.

A short description of series [9]: Solubility of DMPA in solvents. The method, then:
Solubility was tested between the various solvents to determine their applicability in the PUD manufacturing processes. Solubility is the amount of a substance (coalescing agent) that dissolves in a unit volume of a liquid substance (solvent) to form a saturated solution under specified conditions of temperature and pressure. For the examples, amounts of […] (DMPA) were dissolved in each solvent.

A short description of series [10]: Minimum film forming temperature, non-pigmented resin + coalescing agent. The series is classed as physicochemical. The conditions noted are these: resin with 5 wt. % coalescing agent, film thickness 350 μm.

As for “2, 2, 4-trimethyl-1,3-pentanediol monoisobutyrate [Ester alcohol, reference compound]”, the MFFT in series [1] was −0.4 °C. Also, in series [2], the “Open Time” value stood at 10 min. The “Drying Time” value in [3] was determined as 13.6 min. For the same molecule, in series [4] (1 Day, in s), the “Persoz Hardness” value is listed as 98.2 ± 3. Besides, the “Persoz Hardness” value in series [4] (7 Days, in s) is 118.0 ± 1. Besides, in [4] (14 Days, in s), the “Persoz Hardness” value was determined as 120.0 ± 2. Moreover, the “Persoz Hardness” value in [4] (21 Days, in s) is listed as 122.0 ± 2. In addition, the “Persoz Hardness” value in series [4] (28 Days) is on record as “approximately 124.8±1”. The “Persoz Hardness” value in series [4] (28 Days, in s) is on record as 124.8 ± 1. In [5], the “Gloss 20°” value stood at 1.3 ± 0, the “Gloss 60°” value is on record as 3.0 ± 0 and the “Gloss 85°” value came to 19.6 ± 0.3. Further, in series [6], the “Color (Black background) L*” value was 94.93, the “Color (Black background) a*” value is −0.87, the “Color (Black background) b*” value was 2.30 and the “Color (White background) L*” value is 95.6. Besides, in series [6], the “Color (White background) a*” value was −0.51 and the “Color (White background) b*” value was found to be 3.16. Further, in series [7], the “Wt. Loss” value is recorded as 7.747 g/m^2 and the “Loss of thickness after 200 wet-scrub cycles” value (shortened to “Loss of thickness”) is given as 4.439 µm. Moreover, the “freeze-thaw stability: viscosity change (thickening of the paint)” value in series [8] is listed as “thickening of the paint samples after two cycles”.

In the case of `COC(=O)CCCCC(=O)N(C)C` [Ester amide, Hexanoic acid, 6-(dimethylamino)-6-oxo, methyl ester], in [9] (DMPA dissolved in each solvent), the Solubility is listed as 10.0 g/100 g of Solvent. This molecule registered an MFFT in [1] of −0.6 °C. In [2], the “Open Time” value came out at 12 min. Besides, the “Drying Time” value in [3] is 13.3 min. Moreover, in [5], the “Gloss 20°” value stood at 1.3 ± 0, the “Gloss 60°” value amounted to 3.3 ± 0 and the “Gloss 85°” value stood at 24.2 ± 0.2. For the same molecule, in [6], the “Color (Black background) L*” value turned out to be 93.84, the “Color (Black background) a*” value is given as −1.05, the “Color (Black background) b*” value was 2.03 and the “Color (White background) L*” value is reported as 94.98. In series [6], the “Color (White background) a*” value is given as −0.51 and the “Color (White background) b*” value came to 3.29. In series [7], the “Wt. Loss” value worked out at 7.920 g/m^2 and the “Loss of thickness” value is 4.040 µm.

As for `CCCCN1CCCC1=O` [NBP, N-butyl pyrrolidone, reference compound], the MFFT in series [10] is −0.4±0.2 °C. This molecule gave an MFFT in series [1] of −0.7 °C. In series [2], the “Open Time” value worked out at 12 min. The “Drying Time” value in series [3] stood at 11.8 min. The “Persoz Hardness” value in [4] (1 Day, in s) came out at 64.4 ± 3. Moreover, in [4] (7 Days, in s), the “Persoz Hardness” value is 127.0 ± 2. The “Persoz Hardness” value in [4] (14 Days, in s) came out at 133.2 ± 5. Moreover, the “Persoz Hardness” value in [4] (21 Days, in s) was determined as 136.6 ± 6. Moreover, in [5], the “Gloss 20°” value is 1.3 ± 0, the “Gloss 60°” value came to 2.8 ± 0 and the “Gloss 85°” value amounted to 19.9 ± 0.2. In addition, in series [6], the “Color (Black background) L*” value stood at 94.00, the “Color (Black background) a*” value is on record as −1.04, the “Color (Black background) b*” value was 2.20 and the “Color (White background) L*” value is 95.01. Besides, in series [6], the “Color (White background) a*” value is −0.56 and the “Color (White background) b*” value amounted to 3.32. For the same molecule, in series [7], the “Wt. Loss” value was found to be 4.142 g/m^2 and the “Loss of thickness” value is 2.213 µm. In addition, the “freeze-thaw stability: viscosity change (thickening of the paint)” value in series [8] is on record as “thickening of the paint samples after two cycles”.

As for `CN1CCCC1=O` [NMP, N-methyl pyrrolidone, reference compound], the Solubility in [9] is 54.0 g/100 g of Solvent. Besides, in [1], the MFFT is −1.4 °C. In addition, the “Open Time” value in [2] was 12 min. Also, in series [3], the “Drying Time” value was determined as 19.8 min. Further, the “Persoz Hardness” value in series [4] (1 Day, in s) came to 94.2 ± 0.4. For the same molecule, in series [4] (7 Days, in s), the “Persoz Hardness” value turned out to be 101.0 ± 2.4. Also, the “Persoz Hardness” value in [4] (14 Days, in s) is on record as 100.6 ± 1.7. For the same molecule, the “Persoz Hardness” value in series [4] (21 Days, in s) amounted to 107.6 ± 1.3. Besides, in series [5], the “Gloss 20°” value is recorded as 1.3 ± 0, the “Gloss 60°” value amounted to 3.6 ± 0 and the “Gloss 85°” value is reported as 30.7 ± 0.6. Also, in [6], the “Color (Black background) L*” value turned out to be 94.55, the “Color (Black background) a*” value was −0.88, the “Color (Black background) b*” value is on record as 2.20 and the “Color (White background) L*” value came out at 95.14. Besides, in series [6], the “Color (White background) a*” value is on record as −0.52 and the “Color (White background) b*” value turned out to be 3.02. Further, in series [7], the “Wt. Loss” value is 3.372 g/m^2 and the “Loss of thickness” value is 2.090 µm.

Take `CCCCN1CCCCCC1=O` [N—BuCPL, N-butyl caprolactam]: in series [9], the Solubility is recorded as 10.0 g/100 g of Solvent. The MFFT in series [10] is −1.3±0.3 °C.

Take “N-butyl pyrrolidone [NBP, reference compound]”: the Solubility in [9] was 20.0 g/100 g of Solvent.
